Laboratory results taken from patent US20100143313A1, “HOMOGENEOUS DIFFERENTIATION OF HEPATOCYTE-LIKE CELLS FROM EMBRYONIC STEM CELLS” (THE GENERAL HOSPITAL CORPORATION, priority 2008, published 2010).

Columns and labels:
Format in all cases: cell-based, murine
[1] = system: albumin promoter-driven GFP expression in ES-derived endoderm (ESDE) cells; assay: Screening of agonists for albumin promoter-driven GFP expression in ES-derived endoderm (ESDE) cells, flow cytometry; conditions: agonist d14-d20, 2% DMSO, 1 μM Azacytidine, 1 μM Retinoic Acid, 100 μM SNAP, 1 μM A23187, 1 nM vasopressin, 200 μM IBMX, 2 mM phenobarbital, 10 mM nicotinamide, 0.1 μM PGE2; for Cell fraction of day 30 ES-derived cells positive for albumin promoter-driven GFP expression, High Glucose: high glucose DMEM; for Cell fraction of day 30 ES-derived cells positive for albumin promoter-driven GFP expression, Low Glucose: low glucose DMEM
Experimental: A transgenic ES cell for enhanced green fluorescence protein (GFP) driven by the albumin promoter was used or the purpose of quickly screening different stimulants for hepatic differentiation. After a total of 30 days of differentiation, the various agonists were evaluated for their ability to induce ES-derived endoderm (ESDE) to express the albumin gene. When the ESDE cells were cultured in high glucose conditions, none of the agonists tested were able to increase cell population fraction positive for GFP expression over 10% (Table 1):
Additionally, for the purpose of quickly screening different stimulants for hepatic differentiation, a transgenic ES cell for enhanced green fluorescence protein (GFP) driven by the albumin promoter was used for these preliminary studies. The transgenic murine J1 cell line was obtained from the National Cancer Center Research Institute (Tokyo, Japan). The murine ES cell line D3 (ATCC, Manassas, Va.) was also used to assess the differentiation of ES cells into endoderm and hepatic lineage cells. Undifferentiated ES cells were cultured in Knockout DMEM (Gibco), supplemented with 15% replacement serum, 4 mM L-glutamine (Gibco), 100 U/mL penicillin (Gibco), 100 U/ml streptomycin (Gibco), 10 μg/mL gentamycin (Gibco), 1000 units/mL Leukemia Inhibitory Factor (LIF; Chemicon International, Temecula, Calif.), and 0.1 mM 2-mercaptoethanol (Gibco) on 0.1% gelatin-coated T-75 tissue culture flasks. Culture medium was replaced every day and cells were passaged at dilutions ranging from 1:5 to 1:20 at least once a week. Cells were cultured at 37° C. and in a 5% CO2 incubator.
To isolate the ES-derived cells in co-culture, the ES cells cultured on top of collagen sandwiched hepatocytes were incubated with dispase (1 mg/mL) (Gibco) for 30-60 min at 37° C. After incubation, the ES-derived cells were detached by gentle pipetting. The collagen-sandwiched hepatocytes remained at the bottom of the dish, thus allowing separation of the ES-derived cells from the primary hepatocytes. The isolated ES-derived cells were replated (day 10) on collagen gel coated 35-mm dishes at a density of 400,000 ES-derived cells per dish and cultured in high glucose DMEM supplemented with 10% FBS, 100 ng/mL oncostatin-M (Sigma), 0.2 μM dexamethasone (Sigma), and insulin/transferrin/selenious acid (5 μg/mL, 5 μg/mL, 5 ng/mL, respectively) (BD Biosciences, San Jose, Calif.). The replated cells were allowed to recover for four days before induction of hepatocyte differentiation. […]
Alternatively, Cells were detached from the collagen surface using 10 U/ml collagenase and 1 U/ml dispase in serum-free DMEM for 30 minutes. […] Collected cells were analyzed by flow cytometry (Epics Altra; Becton Dickinson). FACS data was analyzed using CellQuest software. […]

ESDE cells [2] = assay: RT-PCR gene expression of ESDE cells after agonist induction; conditions: for Transcriptional expression of tyrosine aminotransferase (Tat) / expression of albumin (Alb) and cytochrome P450 subunit 3a13 (Cyp3a13) mRNA: RT-PCR; for Transcriptional expression of tyrosine aminotransferase (Tat): over culture time; for expression of albumin (Alb) and cytochrome P450 subunit 3a13 (Cyp3a13) mRNA: day twenty-two, increased at day thirty
Experimental: Similarly, glucose-6-phosphatase (G6pc) mRNA expression could only be detected with DMSO or RA stimulation. […] Visceral endoderm marker Sox7 was also weakly expressed in every condition except with DMSO induction.
(§1) At day fourteen of culture, the ES cells were stimulated with the chemical agonists listed on Table 1 (above) in high glucose or low glucose DMEM supplemented with 10% FBS and 0.2 μM dexamethasone. The media with chemical agonists were exchanged every other day until day twenty. At day twenty of culture, the ES cells were cultured without the chemical agonists in high glucose or low glucose DMEM supplemented with 10% FBS and 0.2 μM dexamethasone. The ES cells were cultured up to day fifty with media exchange every other day.
RNA isolation was performed using the Nucleospin RNAII protocol (Clontech, Mountain View, Calif., USA). Following the removal of genomic DNA with DNase, the column was washed and RNA was eluted with distilled water. The RNA purity was quantified using the absorbance ratio at 260 nm (nucleic acids) and 280 nm (protein) and was greater than 1.9. One-Step RT-PCR kit (Qiagen, Valencia, Calif., USA) was used to analyze gene expression. Reactions were initiated using 10 ng RNA and 0.6 μM primer. RT reaction was conducted at 50° C. and 95° C. for 15 min. Three-step cycling was performed: denaturation at 94° C. for 30 s, annealing at 55° C. for 30 s, and extension at 72° C. for 1 min, with a final extension time of 10 min at 72° C. The number of cycles varied between 30 and 35. Following PCR, samples were run on a 2% agarose gel, stained with ethidium bromide, and imaged using the Fluor-X Multiimager (Bio-Rad, Hercules, Calif., USA). Mouse liver total RNA (Ambion, Austin, Tex., USA) was used as a control for hepatocyte gene expression. Markers: Foxa2, AFP, Sox 17, Albumin, GATA1, Runx2, Foxf1, NKx2.5, Tal1, Pax 6, AAT, CK8, CK18, TTR, CYP3A13, Brachyury, Goosecoid, β-actin.

ESDE cells [3] = assay: Albumin secretion of ESDE cells into culture media (ELISA); conditions: DMSO induction, low glucose
Experimental: (§2) FIGS. 3A and 3B are bar graphs showing albumin and urea secretion rates of hepatocyte-like cells. Albumin secretion was measured at various timepoints by ELISA (3A). Urea secretion was measured with a colorimetric assay (3B). […] Urea and albumin secretion rates increased up to forty days of culture. […] Values represent mean±SD of two experiments and repeated in triplicate.
(§3) The maturation of ESDE cells into functional hepatocytes was evaluated by measuring the secretion of albumin and urea into the culture media (FIG. 3). […] Neither albumin nor urea secretion was detectable before day twenty in any of the other conditions tested.
as §1, with “The ES cells were cultured up to day fifty with media exchange every other day.” left out
(§4) Collected medium samples were analyzed for secreted concentrations of mouse albumin by ELISA. […] Urea content was determined with diacetyl monoxime using a commercially available kit (StanBio Laboratory, Boerne, Tex.). The absorbance was measured with a Thermomax microplate reader (Molecular Devices, Sunnyvale, Calif.).

ESDE cells [4] = assay: Urea secretion of ESDE cells into culture media (colorimetric assay); conditions: DMSO-stimulated ESDE cells
Experimental: as §2, §3
as §1, with “The ES cells were cultured up to day fifty with media exchange every other day.” left out
as §4

ESDE cells [5] = assay: Glycogen staining (periodic acid-Schiff); conditions: after thirty-two days of differentiation
Experimental: Rat primary hepatocytes are capable of secreting albumin at a rate of approximately 2.0 μg/hour/10^6 cells, and the mouse hepatocarcinoma cell line Hepal-6 can produce albumin at a rate of 4.7 μg/hour/10^6 cells. The ability of the ES-derived hepatocyte-like cells to produced and store glycogen was assessed using a periodic acid-Schiff stain. […] The capacity for the hepatocyte-like cells to actively synthesize glycogen was seen after the culture media was switched from the low-glucose differentiation media to high-glucose DMEM supplemented with 10% FBS and 0.2 μM dexamethasone for two days. More intense magenta staining of the hepatocyte-like cells was found after the two-day incubation in high-glucose media.
Periodic acid-Schiff staining kit was purchased from Sigma. Cells were fixed with 4% paraformaldehyde in PBS for 20 minutes at room temperature. Staining procedures were performed according to manufacturer's instruction.

[6] = system: cytochrome P450 activity (CYP1A1); assay: EROD assay for inducible cytochrome P450 activity; conditions: two-day exposure to 3-methylcholanthrene, day 36
Experimental: Day-thirty-four ES-derived cells were stimulated with 2 mM 3-methycholanthrene (3-MC) for two days. The conversion of ethyoxyresorufin to fluorescent resorufin was assayed on day thirty-six of culture. Values represent mean±SEM of three experiments and repeated in duplicate.
The EROD assay was used to measure inducible cytochrome P450 activity (CYP1A1) of the hepatocyte-like cells.
The drug metabolizing activity of the ES cell-derived hepatocytes were evaluated using an ethoxyresorufin 0-de-ethylase (EROD) assay. Day thirty-four ES cells were stimulated with 2 mM 3 methycholanthrene (3-MC) for two days. On day 36, the media was replaced with 10 μM ethoxyresorufin (Invitrogen) and 80 μM dicumarol (Sigma) in Earle's Balanced Salt Solution. Solution samples were collected at 5, 15, 25, and 35 minutes after the introduction of substrates. The increase in fluorescence intensity caused by conversion of ethyoxyresorufin to fluorescent resorufin estimates the CYP1A1 activity in hepatocytes.

| expression of albumin (Alb) and cytochrome P450 subunit 3a13 (Cyp3a13) mRNA (ESDE cells [2]) | SMILES | Cell fraction of day 30 ES-derived cells positive for albumin promoter-driven GFP expression, High Glucose [1] [%] | Cell fraction of day 30 ES-derived cells positive for albumin promoter-driven GFP expression, Low Glucose [1] [%] | glucose-6-phosphatase (G6pc) mRNA expression (ESDE cells [2]; RT-PCR after induction) | Transcriptional expression of tyrosine aminotransferase (Tat) (ESDE cells [2]) | also measured |
| --- | --- | --- | --- | --- | --- | --- |
| – | CCCCC[C@H](O)/C=C/[C@H]1[C@H](O)CC(=O)[C@@H]1C/C=C\CCCC(=O)O [PGE2, prostaglandin E2] | 7.8 | 57 | – | – | – |
| could be detected by day twenty-two | CC1=C(/C=C/C(C)=C/C=C/C(C)=C/C(=O)O)C(C)(C)CCC1 [Retinoic Acid, all-trans retinoic acid] | – | – | detected | highest at day thrity | – |
| could be detected by day twenty-two | C[S+](C)[O-] [DMSO, Dimethyl sulfoxide] | – | – | detected | highest at day thrity | albumin secretion rate (ESDE cells [3]; day forty): 3.09 μg/hour/10^6 cells; albumin secretion rate (ESDE cells [3]; day twenty-two): 0.34 μg/hour/10^6 cells; urea secretion rate (ESDE cells [4]; day 22): 0.36 μg/hour/106 cells; urea secretion rate (ESDE cells [4]; day forty): 2.45 μg/hour/10^6 cells; Definitive endoderm marker Sox17 expression (ESDE cells [2]; RT-PCR after induction): down-regulated; glycogen stores (periodic acid-Schiff stain) (ESDE cells [5]): visible glycogen stores; EROD activity compared to cells cultured in high glucose media without DMSO stimulation [6]: 20 fold; EROD activity over cells cultured in low glucose media without DMSO stimulation [6]: 4.5 fold |
| – | NC(=O)CC[C@@H]1NC(=O)[C@H](Cc2ccccc2)NC(=O)[C@H](Cc2ccc(O)cc2)NC(=O)[C@@H](N)CSSC[C@@H](C(=O)N2CCC[C@H]2C(=O)N[C@@H](CCCN=C(N)N)C(=O)NCC(N)=O)NC(=O)[C@H](CC(N)=O)NC1=O [vasopressin] | 4.5 | 59 | – | – | – |
